Test results: patent US12472272B2, “Radiolabelled compounds for diagnosis or treatment of prostate-specific membrane antigen- expressing cancer” (PROVINCIAL HEALTH SERVICES AUTHORITY, priority 2019, dated 2025)
“Also recorded” adds a separate entry of the source.

Tests used:
[1] = tested on: PSMA-expressing cancer xenografts (LNCaP); test: Biodistribution of ^177Lu-labeled HTK03041; type: in vivo, mice; conditions: for Tissue (% ID/g): Salivary / Tissue (% ID/g): Seminal / Tissue (% ID/g): Spleen / Tissue (% ID/g): Stomach / Tissue (% ID/g): Tail / Tissue (% ID/g): Testes / Tissue (% ID/g): Thyroid / Tissue (% ID/g): Tumor / Tissue (% ID/g): Urine / tumor-to-background contrast ratio Tumor: Blood / tumor-to-background contrast ratio Tumor: Muscle / tumor-to-background contrast ratio Tumor: kidney / Tissue (% ID/g): Adrenal glands / Tissue (% ID/g): Blood / Tissue (% ID/g): Bone / Tissue (% ID/g): Brain / Tissue (% ID/g): Fat / Tissue (% ID/g): Heart / Tissue (% ID/g): Intestine / Tissue (% ID/g): Kidneys / Tissue (% ID/g): Lacrimal / Tissue (% ID/g): Liver / Tissue (% ID/g): Lungs / Tissue (% ID/g): Muscle / Tissue (% ID/g): Pancreas: ^177Lu
Experimental: (§1) Imaging and biodistribution experiments were performed using NODSCID 1L2RγKO male mice. Mice were anesthetized by inhalation with 2% isoflurane in oxygen, and implanted subcutaneously with 1×10^7 LNCaP cells behind left shoulder. Mice were imaged or used in biodistribution studies when the tumor grew up to reach 5-8 mm in diameter during 5-6 weeks.
(§2) SPECT/CT imaging experiments were conducted using the MlLabs (Utrecht, the Netherlands) U-SPECT-II/CT scanner. Each tumor bearing mouse was injected with ˜37 MBq of ^177Lu-labeled HTK03041 through the tail vein under anesthesia (2% isoflurane in oxygen). The mice were allowed to recover and roam freely in their cage and imaged at 1, 4, 24, 72 and 120 hours after injection. At each time point, the mice were sedated again and positioned in the scanner. A 5-min CT scan was conducted first for anatomical reference with a voltage setting at 60 kV and current at 615 μA followed by a 60-min static emission scan acquired in list mode using an ultra-high resolution multi-pinhole rat-mouse (1 mm pinhole size) collimator. Data were reconstructed using the U-SPECT II software with a 20% window width on three energy windows. The photopeak window was centered at 208 keV, with lower scatter and upper scatter windows centered at 170 and 255 keV, respectively. Reconstruction parameters used maximum-likelihood expectation maximization (3 iterations), pixel-based ordered subset expectation maximization (16 subsets), and a post-processing filter (Gaussian blurring) of 0.5 mm. Images were decay corrected to injection time in PMOD (PMOD Technologies, Switzerland) then converted to DICOM for qualitative visualization in Inveon Research Workplace (Siemens Medical Solutions USA, Inc.).
For biodistribution studies, the mice were injected with the radiotracer as described above. At predetermined time points (1 or 3 h for ^68Ga studies; 1, 4, 24, 72, or 120 h for ^177Lu studies), the mice was anesthetized with 2% isoflurane inhalation, and euthanized by CO2 inhalation. Blood was withdrawn immediately from the heart, and the organs/tissues of interest were collected. The collected organs/tissues were weighed and counted using a Perkin Elmer (Waltham, MA) Wizard2 2480 gamma counter. The uptake in each organ/tissue was normalized to the injected dose using a standard curve, and expressed as the percentage of the injected dose per gram of tissue (% ID/g).

LNCaP tumors = test: SPECT/CT imaging of ^177Lu-labeled HTK03041; type: in vivo, mice; conditions: 1 h to 120 h post-injection, FIG. 4
Experimental: as §1
as §2, with “Reconstruction parameters used maximum-likelihood expectation maximization (3 iterations), pixel-based ordered subset expectation maximization (16 subsets), and a post-processing filter (Gaussian blurring) of 0.5 mm. Images were decay corrected to injection time in PMOD (PMOD Technologies, Switzerland) then converted to DICOM for qualitative visualization in Inveon Research Workplace (Siemens Medical Solutions USA, Inc.).” left out

O=C([O-])CN1CCN(CC(=O)[O-])CCN(CC(=O)NC[C@H]2CC[C@H](C(=O)N[C@@H](Cc3c4ccccc4cc4ccccc34)C(=O)NCCCC[C@H](NC(=O)N[C@@H](CCC(=O)O)C(=O)O)C(=O)O)CC2)CCN(CC(=O)[O-])CC1.[177Lu+3] [^177Lu-HTK03041]
Tissue (% ID/g): Salivary ([1]; 24 h post-injection): 0.40 ± 0.06 % ID/g
Tissue (% ID/g): Seminal ([1]; 24 h post-injection): 0.23 ± 0.13 % ID/g
Tissue (% ID/g): Spleen ([1]; 24 h post-injection): 0.59 ± 0.19 % ID/g
Tissue (% ID/g): Stomach ([1]; 24 h post-injection): 0.18 ± 0.04 % ID/g
Tissue (% ID/g): Tail ([1]; 24 h post-injection): 0.34 ± 0.17 % ID/g
Tissue (% ID/g): Testes ([1]; 24 h post-injection): 0.40 ± 0.08 % ID/g
Tissue (% ID/g): Thyroid ([1]; 24 h post-injection): 0.47 ± 0.09 % ID/g
Tissue (% ID/g): Tumor ([1]; 24 h post-injection): 19.8 ± 6.13 % ID/g
Tissue (% ID/g): Urine ([1]; 24 h post-injection): 23.8 ± 8.50 % ID/g
tumor-to-background contrast ratio Tumor: Blood ([1]; 24 h post-injection): 282 ± 82.6
tumor-to-background contrast ratio Tumor: Muscle ([1]; 24 h post-injection): 142 ± 30.1
tumor-to-background contrast ratio Tumor: kidney ([1]; 24 h post-injection): 0.97 ± 0.15
Tissue (% ID/g): Adrenal glands ([1]; 72 h post-injection): 0.12 ± 0.05 % ID/g
Tissue (% ID/g): Blood ([1]; 72 h post-injection): 0.02 ± 0.00 % ID/g
Tissue (% ID/g): Bone ([1]; 72 h post-injection): 0.02 ± 0.01 % ID/g
Tissue (% ID/g): Brain ([1]; 72 h post-injection): 0.01 ± 0.00 % ID/g
Tissue (% ID/g): Fat ([1]; 72 h post-injection): 0.03 ± 0.01 % ID/g
Tissue (% ID/g): Heart ([1]; 72 h post-injection): 0.07 ± 0.02 % ID/g
Tissue (% ID/g): Intestine ([1]; 72 h post-injection): 0.13 ± 0.04 % ID/g
Tissue (% ID/g): Kidneys ([1]; 72 h post-injection): 1.27 ± 0.58 % ID/g
Tissue (% ID/g): Lacrimal ([1]; 72 h post-injection): 0.01 ± 0.01 % ID/g
Tissue (% ID/g): Liver ([1]; 72 h post-injection): 0.13 ± 0.05 % ID/g
Tissue (% ID/g): Lungs ([1]; 72 h post-injection): 0.14 ± 0.04 % ID/g
Tissue (% ID/g): Muscle ([1]; 72 h post-injection): 0.02 ± 0.01 % ID/g
Tissue (% ID/g): Pancreas ([1]; 72 h post-injection): 0.05 ± 0.02 % ID/g
Tissue (% ID/g): Salivary ([1]; 72 h post-injection): 0.08 ± 0.03 % ID/g
Tissue (% ID/g): Seminal ([1]; 72 h post-injection): 0.03 ± 0.01 % ID/g
Tissue (% ID/g): Spleen ([1]; 72 h post-injection): 0.12 ± 0.04 % ID/g
Tissue (% ID/g): Stomach ([1]; 72 h post-injection): 0.19 ± 0.09 % ID/g
Tissue (% ID/g): Tail ([1]; 72 h post-injection): 0.13 ± 0.08 % ID/g
Tissue (% ID/g): Testes ([1]; 72 h post-injection): 0.08 ± 0.02 % ID/g
Tissue (% ID/g): Thyroid ([1]; 72 h post-injection): 0.09 ± 0.02 % ID/g
Tissue (% ID/g): Tumor ([1]; 72 h post-injection): 15.2 ± 4.72 % ID/g
Tissue (% ID/g): Urine ([1]; 72 h post-injection): 0.67 ± 0.22 % ID/g
tumor-to-background contrast ratio Tumor: Blood ([1]; 72 h post-injection): 805 ± 164
tumor-to-background contrast ratio Tumor: Muscle ([1]; 72 h post-injection): 647 ± 119
tumor-to-background contrast ratio Tumor: kidney ([1]; 72 h post-injection): 13.1 ± 3.75
Tissue (% ID/g): Adrenal glands ([1]; 120 h post-injection): 0.11 ± 0.11 % ID/g
Tissue (% ID/g): Blood ([1]; 120 h post-injection): 0.01 ± 0.01 % ID/g
Tissue (% ID/g): Bone ([1]; 120 h post-injection): 0.02 ± 0.00 % ID/g
Tissue (% ID/g): Brain ([1]; 120 h post-injection): 0.01 ± 0.00 % ID/g
Tissue (% ID/g): Fat ([1]; 120 h post-injection): 0.05 ± 0.09 % ID/g
Tissue (% ID/g): Heart ([1]; 120 h post-injection): 0.06 ± 0.02 % ID/g
Tissue (% ID/g): Intestine ([1]; 120 h post-injection): 0.06 ± 0.03 % ID/g
Tissue (% ID/g): Kidneys ([1]; 120 h post-injection): 1.06 ± 0.74 % ID/g
Tissue (% ID/g): Lacrimal ([1]; 120 h post-injection): 0.01 ± 0.01 % ID/g
Tissue (% ID/g): Liver ([1]; 120 h post-injection): 0.13 ± 0.04 % ID/g
Tissue (% ID/g): Lungs ([1]; 120 h post-injection): 0.10 ± 0.04 % ID/g
Tissue (% ID/g): Muscle ([1]; 120 h post-injection): 0.02 ± 0.02 % ID/g
Tissue (% ID/g): Pancreas ([1]; 120 h post-injection): 0.04 ± 0.01 % ID/g
Tissue (% ID/g): Salivary ([1]; 120 h post-injection): 0.06 ± 0.04 % ID/g
Tissue (% ID/g): Seminal ([1]; 120 h post-injection): 0.02 ± 0.01 % ID/g
Tissue (% ID/g): Spleen ([1]; 120 h post-injection): 0.22 ± 0.11 % ID/g
Tissue (% ID/g): Stomach ([1]; 120 h post-injection): 0.05 ± 0.04 % ID/g
Tissue (% ID/g): Tail ([1]; 120 h post-injection): 0.11 ± 0.07 % ID/g
Tissue (% ID/g): Testes ([1]; 120 h post-injection): 0.06 ± 0.01 % ID/g
Tissue (% ID/g): Thyroid ([1]; 120 h post-injection): 0.08 ± 0.03 % ID/g
Tissue (% ID/g): Tumor ([1]; 120 h post-injection): 22.3 ± 6.90 % ID/g
Tissue (% ID/g): Urine ([1]; 120 h post-injection): 0.29 ± 0.04 % ID/g
tumor-to-background contrast ratio Tumor: Blood ([1]; 120 h post-injection): 1670 ± 272
tumor-to-background contrast ratio Tumor: Muscle ([1]; 120 h post-injection): 1215 ± 512
tumor-to-background contrast ratio Tumor: kidney ([1]; 120 h post-injection): 25.4 ± 9.59
tumor uptake over the investigated time points ([1]; up to 120 h post-injection): remained at the similar level throughout the investigated time points; also recorded: sustained over the course of the study
uptake in background tissues including kidneys in SPECT images (LNCaP tumors): cleared quickly over time
uptake in tumor in SPECT images (LNCaP tumors): sustained over the course the study
